Reference: the NIST ThermoML archive (doi:10.1021/je700026d)
± gives the expanded uncertainty stated by the source.

Tests used:
[1] = Liquid; for speed of sound: 100 kPa, Linear variable-path acoustic interferometer; for viscosity / mass density: 101.3 kPa; for viscosity: Capillary tube (Ostwald / Ubbelohde) method; for mass density: Pycnometric method
[2] = xn = mol fraction of the nth substance listed; conditions: Liquid; for speed of sound: 100 kPa, Linear variable-path acoustic interferometer; for viscosity: Capillary tube (Ostwald / Ubbelohde) method; for mass density: Pycnometric method

COCCOC [1,2-dimethoxyethane]
[1]
Conditions	mass density [kg/m3]	speed of sound [m/s]	viscosity [mPa·s]
298.15 K	861.5 ± 1	1146.2 ± 1.7	0.409 ± 0.007
308.15 K	850.7 ± 1	–	0.366 ± 0.007
318.15 K	839.6 ± 1	–	0.33 ± 0.007

COCCO [2-methoxyethan-1-ol]
[1]
Conditions	mass density [kg/m3]	speed of sound [m/s]	viscosity [mPa·s]
298.15 K	959.7 ± 0.7	1339.4 ± 1.8	1.543 ± 0.014
308.15 K	951.5 ± 0.7	–	1.257 ± 0.012
318.15 K	945.9 ± 0.7	–	1.051 ± 0.011

COCCO [2-methoxyethan-1-ol] + NC=O
Conditions	speed of sound [m/s]
[2], 298.15 K, x2 = 0	1339.4 ± 1.8

[2], 101.3 kPa, x2 = 0
Conditions	mass density [kg/m3]	viscosity [mPa·s]
298.15 K	959.7 ± 0.7	1.543 ± 0.014
308.15 K	951.5 ± 0.7	1.257 ± 0.012
318.15 K	945.9 ± 0.7	1.051 ± 0.011

CC#N [acetonitrile]
[1]
Conditions	mass density [kg/m3]	speed of sound [m/s]	viscosity [mPa·s]
298.15 K	776 ± 0.7	1260.2 ± 5.2	0.344 ± 0.007
308.15 K	766.3 ± 0.7	–	0.313 ± 0.007
318.15 K	755 ± 0.7	–	0.289 ± 0.007

CC#N [acetonitrile] + NC=O
Conditions	speed of sound [m/s]
[2], 298.15 K, x2 = 0	1260.2 ± 5.2

[2], 101.3 kPa, x2 = 0
Conditions	mass density [kg/m3]	viscosity [mPa·s]
298.15 K	776 ± 0.7	0.344 ± 0.007
308.15 K	766.3 ± 0.7	0.313 ± 0.007
318.15 K	755 ± 0.7	0.289 ± 0.007

CC(=O)c1ccccc1 [acetophenone]
[1]
Conditions	mass density [kg/m3]	speed of sound [m/s]	viscosity [mPa·s]
298.15 K	1023.1 ± 0.7	1296.4 ± 1.8	1.653 ± 0.014
308.15 K	1014.8 ± 0.7	–	1.412 ± 0.013
318.15 K	1007.5 ± 0.8	–	1.117 ± 0.012

C[S+](C)[O-] [dimethyl sulfoxide]
[1]
Conditions	mass density [kg/m3]	speed of sound [m/s]	viscosity [mPa·s]
298.15 K	1095.4 ± 2.5	1493 ± 3.4	2.042 ± 0.034
308.15 K	1085.9 ± 2.5	–	1.568 ± 0.026
318.15 K	1076.9 ± 2.5	–	1.485 ± 0.024

C[S+](C)[O-] [dimethyl sulfoxide] + NC=O
Conditions	speed of sound [m/s]
[2], 298.15 K, x2 = 0	1493 ± 3.4

[2], 101.3 kPa, x2 = 0
Conditions	mass density [kg/m3]	viscosity [mPa·s]
298.15 K	1095.4 ± 2.5	2.042 ± 0.034
308.15 K	1085.9 ± 2.5	1.568 ± 0.026
318.15 K	1076.9 ± 2.5	1.485 ± 0.024

NC=O [formamide]
[1]
Conditions	mass density [kg/m3]	speed of sound [m/s]	viscosity [mPa·s]
298.15 K	1129.2 ± 2.6	1591.3 ± 3.4	3.302 ± 0.055
308.15 K	1120.5 ± 2.6	–	2.542 ± 0.043
318.15 K	1111.1 ± 2.6	–	2.001 ± 0.034

NC=O [formamide] + CC(=O)c1ccccc1
Conditions	speed of sound [m/s]
[2], 298.15 K, x1 = 1	1591.3 ± 3.4

[2], 101.3 kPa, x1 = 1
Conditions	mass density [kg/m3]	viscosity [mPa·s]
298.15 K	1129.2 ± 2.6	3.302 ± 0.055
308.15 K	1120.5 ± 2.6	2.542 ± 0.043
318.15 K	1111.1 ± 2.6	2.001 ± 0.034

NC=O [formamide] + COCCOC
Conditions	speed of sound [m/s]
[2], 298.15 K, x1 = 1	1591.3 ± 3.4

[2], x1 = 1
Conditions	mass density, 298.15 K [kg/m3]	mass density, 308.15 K [kg/m3]	mass density, 318.15 K [kg/m3]	viscosity, 298.15 K [mPa·s]	viscosity, 308.15 K [mPa·s]	viscosity, 318.15 K [mPa·s]
101 kPa	1129.2 ± 2.7	1120.5 ± 2.7	1111.1 ± 2.7	–	–	–
101.3 kPa	–	–	–	3.302 ± 0.055	2.542 ± 0.043	2.001 ± 0.034
